Test results as given in patent US7709223B2, “Method for detecting bacteria with chromogenic substrates for β-D-ribofuranosidase” (priority 2001, dated 2010).
Where a name gives a salt, the structure may show the parent alone.

What was measured:
Assay in all cases: Hydrolysis on Columbia agar with ferric ammonium citrate
Type in all cases: cell-based
E. coli = tested on: E. coli; design: β-Riboside (hydrolysis): key to the marks not given beside the values
Procedure: (§1) The chromogenic β-D-ribofuranoside substrate was added to Columbia agar at a substrate concentration of 300 mg/l. Ferric ammonium citrate was included at 500 mg/l. All ingredients were autoclaved at 116° C. for 20 minutes to ensure sterilisation. Agar plates were then prepared in 90 mm petri dishes. The substrate caused a yellow colouration of the agar.
(§2) For each strain tested, a bacterial suspension was prepared in sterile deionised water at an inoculum of approximately 1.5×10^8 colony forming units per ml. This was achieved using a densitometer. 1 μl of each bacterial suspension was then inoculated onto each plate using a multipoint inoculator. Strains were inoculated in parallel onto Columbia agar containing ferric ammonium citrate with no substrate (negative control).
(§3) After 18 hours incubation, strains were examined visually for the presence of colour. Any strains producing a black colouration on substrate containing media but not on the negative control plates were deemed to be hydrolysing the substrate.

K. pneumoniae = tested on: K. pneumoniae; design: β-Riboside (hydrolysis): key to the marks not given beside the values
Procedure: as §1, §2, §3

E. aerogenes = tested on: E. aerogenes; design: β-Riboside (hydrolysis): key to the marks not given beside the values
Procedure: as §1, §2, §3

Shigella sonnei = tested on: Shigella sonnei; design: β-Riboside (hydrolysis): key to the marks not given beside the values
Procedure: as §1, §2, §3

Enterococcus mundtii = Enterococcus mundtii NCTC 12363
Procedure: as §1, §2, §3

Enterococcus gallinarum = Enterococcus gallinarum NCTC 11428
Procedure: as §1, §2, §3

Streptococcus gordonii = Streptococcus gordonii NCTC 7865
Procedure: as §1, §2, §3

Streptococcus salivarius = Streptococcus salivarius NCTC 8618
Procedure: as §1, §2, §3

Streptococcus pneumoniae = Streptococcus pneumoniae NCTC 7465
Procedure: as §1, §2, §3

M. morganii = tested on: M. morganii
Procedure: as §1, §2, §3

Bacillus licusniforms = Bacillus licusniforms NCIMB 9375
Procedure: as §1, §2, §3

Vibrio hollisae = Vibrio hollisae NCTC 11640
Procedure: as §1, §2, §3

P. mirabilis = tested on: P. mirabilis
Procedure: as §1, §2, §3

P. aeruginosa = tested on: P. aeruginosa
Procedure: as §1, §2, §3

[1] = tested on: Haemolytic streptococcus B
Procedure: as §1, §2, §3

Enterococcus raffinosis = Enterococcus raffinosis NCTC 13192
Procedure: as §1, §2, §3

P. vulgaris = tested on: P. vulgaris
Procedure: as §1, §2, §3

[2] = tested on: Staphylococcus haemolyticus
Procedure: as §1, §2, §3

Listeria seerigeri = Listeria seerigeri PHLS wild
Procedure: as §1, §2, §3

Vibrio parahaemolyticus = tested on: Vibrio parahaemolyticus
Procedure: as §1, §2, §3

Providencia stuartii = tested on: Providencia stuartii
Procedure: as §1, §2, §3

Listeria innocua = Listeria innocua PHLS wild
Procedure: as §1, §2, §3

Shigella genus = tested on: Shigella genus
Procedure: as §1, §2, §3

Vibrio alcaligenes = Vibrio alcaligenes NCTC 12160
Procedure: as §1, §2, §3

Y. enterocolitica = tested on: Y. enterocolitica
Procedure: as §1, §2, §3

A. lwoffii = A. lwoffii ATCC 15309
Procedure: as §1, §2, §3

Streptococcus oralis = Streptococcus oralis NCTC11427
Procedure: as §1, §2, §3

Streptococcus sanguis = Streptococcus sanguis NCTC 7863
Procedure: as §1, §2, §3

Enterococcus durans = Enterococcus durans NCTC 8307
Procedure: as §1, §2, §3

Streptococcus agalactiae = Streptococcus agalactiae NCTC 8181
Procedure: as §1, §2, §3

Streptococci = tested on: Streptococci
Procedure: as §1, §2, §3

O=c1cc(-c2ccc(OC3OC(CO)C(O)C3O)c(O)c2)oc2ccccc12 [DHF-riboside, 3′,4′-Dihydroxyflavone-4′-β-D-ribofuranoside sodium salt]
β-Riboside (hydrolysis) (E. coli; E. coli ECO 2): ++
β-Riboside (hydrolysis) (E. coli; E. coli ECO 3): ++
β-Riboside (hydrolysis) (E. coli; E. coli ECO 4): ++
β-Riboside (hydrolysis) (E. coli; E. coli ECO 5): ++
β-Riboside (hydrolysis) (E. coli; E. coli ECO 6): ++
β-Riboside (hydrolysis) (E. coli; E. coli ECO 7): ++
β-Riboside (hydrolysis) (E. coli; E. coli ECO 8): ++
β-Riboside (hydrolysis) (E. coli; E. coli ECO 9): ++
β-Riboside (hydrolysis) (E. coli; E. coli ECO 10): ++
β-Riboside (hydrolysis) (E. coli; E. coli ECO 11): ++
β-Riboside (hydrolysis) (E. coli; E. coli ECO 12): ++
β-Riboside (hydrolysis) (E. coli; E. coli NCTC 10418): ++
β-Riboside (hydrolysis) (K. pneumoniae; K. pneumoniae KPN 2): ++
β-Riboside (hydrolysis) (K. pneumoniae; K. pneumoniae KPN 3): ++
β-Riboside (hydrolysis) (K. pneumoniae; K. pneumoniae KPN 4): ++
β-Riboside (hydrolysis) (K. pneumoniae; K. pneumoniae NCTC 10896): ++
β-Riboside (hydrolysis) (E. aerogenes; E. aerogenes EAE 1): ++
β-Riboside (hydrolysis) (E. aerogenes; E. aerogenes NCIMB 10102): ++
β-Riboside (hydrolysis) (Shigella sonnei; Shigella sonnei NCTC 8219): ++
β-Riboside (hydrolysis) (Shigella sonnei; Shigella sonnei NCTC 8574): ++
β-Riboside (hydrolysis) (Shigella sonnei; Shigella sonnei NCTC 8586): ++
β-Riboside (hydrolysis) (Shigella sonnei; Shigella sonnei NCTC 9774): ++
β-Riboside (hydrolysis) (Shigella sonnei; Shigella sonnei NCTC 10352): ++
β-Ribofuranoside (hydrolysis) (Enterococcus mundtii): +
β-Ribofuranoside (hydrolysis) (Enterococcus gallinarum): +
β-Ribofuranoside (hydrolysis) (Streptococcus gordonii): −
β-Ribofuranoside (hydrolysis) (Streptococcus salivarius): −
β-Ribofuranoside (hydrolysis) (Streptococcus pneumoniae): −
β-Riboside (hydrolysis) (M. morganii; M. morganii MMO 1): +
β-Riboside (hydrolysis) (M. morganii; M. morganii MMO 2): +
β-Riboside (hydrolysis) (M. morganii; M. morganii NCTC 235): −
β-Ribofuranoside (hydrolysis) (Bacillus licusniforms): −
β-Riboside (hydrolysis) (Vibrio hollisae): −
β-Riboside (hydrolysis) (P. mirabilis; P. mirabilis NCTC 10975): −
β-Riboside (hydrolysis) (P. mirabilis; P. mirabilis PMI 1): −
β-Riboside (hydrolysis) (P. mirabilis; P. mirabilis PMI 2): −
β-Riboside (hydrolysis) (P. aeruginosa; P. aeruginosa ATCC 10145): +
β-Riboside (hydrolysis) (P. aeruginosa; P. aeruginosa NCTC 10662): +
β-Ribofuranoside (hydrolysis) ([1]; Reference No. 1): −
β-Ribofuranoside (hydrolysis) ([1]; Reference No. 2): −
β-Ribofuranoside (hydrolysis) ([1]; Reference No. 3): −
β-Ribofuranoside (hydrolysis) (Enterococcus raffinosis): +
β-Riboside (hydrolysis) (P. vulgaris; P. vulgaris PVU 2): −
β-Riboside (hydrolysis) (P. vulgaris; P. vulgaris PVU 4): −
β-Riboside (hydrolysis) (P. vulgaris; P. vulgaris PVU 5): −
β-Ribofuranoside (hydrolysis) ([2]; Staphylococcus haemolyticus RB 66): +
β-Ribofuranoside (hydrolysis) ([2]; Staphylococcus haemolyticus RB 67): +
β-Ribofuranoside (hydrolysis) ([2]; Staphylococcus haemolyticus RB 68): +
β-Ribofuranoside (hydrolysis) ([2]; Staphylococcus haemolyticus RB 69): +
β-Ribofuranoside (hydrolysis) ([2]; Staphylococcus haemolyticus RB 70): +
β-Ribofuranoside (hydrolysis) (Listeria seerigeri): −
β-Riboside (hydrolysis) (Vibrio parahaemolyticus; Vibrio parahaemolyticus NCTC 10441): −
β-Riboside (hydrolysis) (Vibrio parahaemolyticus; Vibrio parahaemolyticus NCTC 10884): −
β-Riboside (hydrolysis) (Vibrio parahaemolyticus; Vibrio parahaemolyticus NCTC 10903): −
β-Riboside (hydrolysis) (Vibrio parahaemolyticus; Vibrio parahaemolyticus NCTC 11344): −
β-Riboside (hydrolysis) (Vibrio parahaemolyticus; Vibrio parahaemolyticus NCTC 12205): −
β-Riboside (hydrolysis) (Providencia stuartii; Providencia stuartii PST 1): +
β-Riboside (hydrolysis) (Providencia stuartii; Providencia stuartii PST 2): +
β-Ribofuranoside (hydrolysis) (Listeria innocua): −
β-D-ribofuranosidase activity (Shigella genus): uniformly positive
β-Riboside (hydrolysis) (Vibrio alcaligenes): −
β-Riboside (hydrolysis) (Y. enterocolitica; Y. enterocolitica NCTC 10460): −
β-Riboside (hydrolysis) (Y. enterocolitica; Y. enterocolitica NCTC 11176): −
β-Riboside (hydrolysis) (Y. enterocolitica; Y. enterocolitica NCTC 11177): −
β-Riboside (hydrolysis) (Y. enterocolitica; Y. enterocolitica NCTC 11600): −
β-Riboside (hydrolysis) (A. lwoffii): −
β-Ribofuranoside (hydrolysis) (Streptococcus oralis): −
β-Ribofuranoside (hydrolysis) (Streptococcus sanguis): −
β-Ribofuranoside (hydrolysis) (Enterococcus durans): −
β-Ribofuranoside (hydrolysis) (Streptococcus agalactiae): −
Activity with the substrate (Streptococci): almost universally negative
